The values that follow come from patent US9388147B2 (Receptos, Inc., priority 2009, dated 2016).

pEC50: −log10 of the molar value.

The target of the assay is S1P1/EDG1 (Homo sapiens, UniProt P21453). The experiment in a line: S1P1 CRE-bla CHOK1 reporter assay, inhibition of Forskolin induced cAMP. Type of assay: cell-based. The settings on record: agonist activity range, S1P1 CRE-bla CHOK1, 2 μM Forskolin; read-out: S1P1 ACTIVITY
Chain of S1P1/EDG1 (P21453 whole entry): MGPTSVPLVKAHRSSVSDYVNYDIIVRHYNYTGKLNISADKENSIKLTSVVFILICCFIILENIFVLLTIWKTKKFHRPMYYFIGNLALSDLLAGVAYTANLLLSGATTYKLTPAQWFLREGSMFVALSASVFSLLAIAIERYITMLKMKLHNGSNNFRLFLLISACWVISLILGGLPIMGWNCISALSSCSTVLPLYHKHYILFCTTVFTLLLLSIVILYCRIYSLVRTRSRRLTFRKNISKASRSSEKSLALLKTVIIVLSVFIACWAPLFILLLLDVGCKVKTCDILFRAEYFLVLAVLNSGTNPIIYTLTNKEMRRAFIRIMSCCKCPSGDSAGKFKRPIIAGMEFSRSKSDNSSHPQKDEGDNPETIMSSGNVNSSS
As to the method: Generation of S1P1-Mediated Inhibition of cAMP Reporter Assay
A mammalian expression plasmid containing S1P1/EDG1 cloned into pcDNA3.1 was purchased from Missouri S&T cDNA Resource Centre. […] S1P1/pcDNA3.1 was transfected into the CRE-bla CHO K1 (Invitrogen) cell line, and stable single cell clones were selected using standard techniques.
S1P1 CRE-Bla CHOK1 Reporter Assay—Characterization of S1P1 Agonists
Cells were seeded into 384-well black wall/clear bottom plates at 10^4 cells/well/19.5 μl assay media (DMEM-phenol free, 0.5% charcoal/dextran stripped serum, 2 mM glutamine, 0.1 mM NEAA, 1 mM Na-Pyruvate, 25 mM Hepes) and incubated for 18 hrs at 37° C. in 5% CO2. Dose response curves (10-point) were generated in 10 mM Hepes, 0.1% Pluronic F127, in the presence of Forskolin. Cells were treated with 0.5 μl compound in the presence of 2 μM Forskolin for 4 hrs at 37° C. The FRET-based β-lactamase fluorescent substrate (LiveBLAzer™-FRET B/G Loading Kit CC4-AM; Invitrogen) was prepared according to manufacturer's directions, and incubated with cells for 2 hrs at room temperature. […] Data was analyzed by non-linear regression to determine the EC50 for inhibition of Forskolin induced cAMP.
On the technique in general: Reporter assays use an easily measured gene product as a stand-in for the process of interest.
With `CC(C)Oc1ccc(-c2nc(-c3cccc4c3CC[C@H]4NC(=O)CN3CCCC3)no2)cc1C#N` [Compound 68], the pEC50 was 8.30 to 9.30. As for `COC(=O)C(C)(C)CS(=O)(=O)N[C@H]1CCc2c(-c3noc(-c4ccc(OC(C)C)c(C#N)c4)n3)cccc21` [Compound 183], the pEC50 was 8.30 to 9.30. `CC(C)Oc1ccc(-c2nc(-c3cccc4c3CC[C@@H]4N3CC(C(=O)O)C3)no2)cc1C#N` [Compound 203]: the pEC50 was 9.30 to 10.30. Then `CC(C)Oc1ccc(-c2nc(-c3cccc4c3CC[C@H]4NC(=O)N3CC[C@H](O)C3)no2)cc1C#N` [Compound 231], with 9.30 to 10.30; and `CC(C)Oc1ccc(-c2nc(-c3cccc4c3CC[C@H]4NC(=O)OCCO)no2)cc1C#N` [Compound 227], with 9.30 to 10.30. With `CC(C)Oc1ccc(-c2nc(-c3cccc4c3CCC4NCCN)no2)cc1C#N` (racemic) [Compound 29], the pEC50 was 9.30 to 10.30. Take `CC(C)Oc1ccc(-c2nc(-c3cccc4c3CC[C@H]4N3CCOC3=O)no2)cc1C#N` [Compound 154, (R)-2-isopropoxy-5-(3-(1-(2-oxooxazolidin-3-yl)-2,3-dihydro-1H-inden-4-yl)-1,2,4-oxadiazol-5-yl)benzonitrile]: the pEC50 was 9.30 to 10.30. Regarding `CC(=O)O[C@@H]1CCc2c(-c3noc(-c4ccc(OC(C)C)c(C#N)c4)n3)cccc21` [Compound 13, (R)-4-(5-(3-cyano-4-isopropoxyphenyl)-1,2,4-oxadiazol-3-yl)-2,3-dihydro-1H-inden-1-yl acetate], the pEC50 is 8.30 to 9.30. Then `CC(C)Oc1ccc(-c2nc(-c3cccc4c3CC[C@@H]4NCc3nc4ccccc4[nH]3)no2)cc1C#N` [Compound 160], with 8.30 to 9.30; and `CC(C)Oc1ccc(-c2nc(-c3cccc4c3CC[C@H]4NC(=O)CN(C)C)no2)cc1C#N` [Compound 67], with 9.30 to 10.30; and `CC(C)Oc1ccc(-c2nc(-c3cccc4c3CCC4NS(C)(=O)=O)no2)cc1C#N` (stereo in doubt) [Compound 70], with 9.30 to 10.30. As to `CC(=O)N(CCO)[C@@H]1CCc2c(-c3noc(-c4ccc(OC(C)C)c(C#N)c4)n3)cccc21` [Compound 113], the pEC50 is 8.30 to 9.30. As to `CC(C)Oc1ccc(-c2nc(-c3cccc4c3CC[C@@H]4NCC(F)F)no2)cc1C#N` [Compound 141], the pEC50 is 9.30 to 10.30. With `CC(C)Oc1ccc(-c2nc(-c3cccc4c3CC[C@@H]4N3CCOC3=O)no2)cc1C#N` [Compound 155], the pEC50 was 9.30 to 10.30. In the case of `COCCNC1CCc2c(-c3noc(-c4ccc(OC(C)C)c(C#N)c4)n3)cccc21` (stereo in doubt) [Compound 88] it was 8.30 to 9.30; in that of `CCN(CC(=O)N(C)C)[C@@H]1CCc2c(-c3noc(-c4ccc(OC(C)C)c(C#N)c4)n3)cccc21` [Compound 116], 8.30 to 9.30; in that of `CC(C)Oc1ccc(-c2nc(-c3cccc4c3CCC4NC[C@@H](C)O)no2)cc1C#N` (mixture of isomers) [Compound 42], 8.30 to 9.30. Consider `CCOC(=O)CNC1CCc2c(-c3noc(-c4ccc(OC(C)C)c(C#N)c4)n3)cccc21` (racemic) [Compound 40], for which the pEC50 is 9.30 to 10.30.

As for `CC(C)Oc1ccc(-c2nc(-c3cccc4c3CC[C@H]4NS(=O)(=O)CCN3CC[C@H](O)C3)no2)cc1C#N` [Compound 172], the pEC50 is 8.30 to 9.30. With `CC(C)C(=O)Oc1ccc(-c2nc(-c3cccc4c3CCC4NCCO)no2)cc1C#N` (racemic) [Compound 108], the pEC50 was under 8.30. Regarding `CC(C)Oc1ccc(-c2nc(-c3cccc4c3CCC4NCCN3CCCCC3)no2)cc1C#N` (racemic) [Compound 20], the pEC50 is under 8.30. `CC(C)Oc1ccc(-c2nc(-c3cccc4c3CC[C@H]4N)no2)cc1S(C)(=O)=O` [Compound 252]: the pEC50 is 8.30 to 9.30.

For `CC(C)Oc1ccc(-c2nc(-c3cccc4c3CCC4N3CC[C@@H](O)C3)no2)cc1C#N` (mixture of isomers) [Compound 33], the pEC50 is 8.30 to 9.30. For `CC(C)Oc1ccc(-c2nc(-c3cccc4c3CC[C@H]4N[C@H](C)c3ccccc3)no2)cc1C#N` [Compound 251], the pEC50 was under 8.30. For the molecule `CC(C)CS(=O)(=O)N[C@@H]1CCc2c(-c3noc(-c4ccc(OC(C)C)c(C#N)c4)n3)cccc21` [Compound 76], the pEC50 was 8.30 to 9.30. Then `CC(C)Oc1ccc(-c2nc(-c3cccc4c3CC[C@@H]4NS(C)(=O)=O)no2)cc1C#N` [Compound 69, (S)-N-(4-(5-(3 cyano-4-isopropoxyphenyl)-1,2,4-oxadiazol-3-yl)-2,3-dihydro-1H-inden-1-yl)methanesulfonamide], with over 10.30; and `CC(C)Oc1ccc(-c2nc(-c3cccc4c3CCC4NS(=O)(=O)CCN(C)C)no2)cc1C#N` (stereo in doubt) [Compound 77], with 9.30 to 10.30.

`CC(C)Oc1ccc(-c2nc(-c3cccc4c3CCC4NCCN3CCOCC3)no2)cc1C#N` (racemic) [Compound 21]: the pEC50 was 8.30 to 9.30.

Regarding `CC(C)Oc1ccc(-c2nc(-c3cccc4c3CC[C@H]4NC(=O)N3CC[C@@H](N(C)C)C3)no2)cc1C#N` [Compound 242], the pEC50 is 8.30 to 9.30. On to `CCCN[C@H]1CCc2c(-c3noc(-c4ccc(OC(C)C)c(C#N)c4)n3)cccc21` [Compound 144], for which the pEC50 was 9.30 to 10.30. `COCCN[C@H]1CCc2c(-c3noc(-c4ccc(OC(C)C)c(C#N)c4)n3)cccc21` [Compound 89]: the pEC50 was 9.30 to 10.30. Regarding `CCOc1ccc(-c2nc(-c3cccc4c3CC[C@@H]4O)no2)cc1OCC` [Compound 2], the pEC50 is 9.30 to 10.30. As for `CC(C)Oc1ccc(-c2nc(-c3cccc4c3CC[C@@H]4NC(=O)N3CCC[C@@H](O)C3)no2)cc1C#N` [Compound 220], the pEC50 was 9.30 to 10.30. Turning to `CC(C)Oc1ccc(-c2nc(-c3cccc4c3CC[C@H]4NC(=O)CN)no2)cc1C#N` [Compound 66], the pEC50 was 9.30 to 10.30. On to `CCN(CCO)[C@@H]1CCc2c(-c3noc(-c4ccc(OC(C)C)c(C#N)c4)n3)cccc21` [Compound 114], for which the pEC50 was 9.30 to 10.30.

Take `CC(C)Oc1ccc(-c2nc(-c3cccc4c3CC[C@@H]4O)no2)cc1C(F)(F)F` [Compound 8]: the pEC50 was 9.30 to 10.30. Regarding `CC(C)Oc1ccc(-c2nc(-c3cccc4c3CC[C@@H]4NC(=N)N)no2)cc1C#N` [Compound 250], the pEC50 was 9.30 to 10.30.

On to `CC(C)Oc1ccc(-c2nc(-c3cccc4c3CC[C@@H]4NS(=O)(=O)C3CC3)no2)cc1C#N` [Compound 167], for which the pEC50 was 9.30 to 10.30. `CC(C)Oc1ccc(-c2nc(-c3cccc4c3CC[C@H]4NC(=O)CO)no2)cc1C#N` [Compound 65, (R)-N-(4-(5-(3 cyano-4-isopropoxyphenyl)-1,2,4-oxadiazol-3-yl)-2,3-dihydro-1H-inden-1-yl)-2-hydroxyacetamide]: the pEC50 is over 10.30. Then `CC(C)Oc1ccc(-c2nc(-c3cccc4c3CC[C@H]4NS(=O)(=O)CCN3CCCCC3)no2)cc1C#N` [Compound 175], with 8.30 to 9.30.

Regarding `COCC(=O)NC1CCc2c(-c3noc(-c4ccc(OC(C)C)c(C#N)c4)n3)cccc21` (racemic) [Compound 39], the pEC50 is 9.30 to 10.30. `N#Cc1cc(-c2nc(-c3cccc4c3CCC4NCCO)no2)ccc1O` (racemic) [Compound 102, 2-hydroxy-5-(3-(1-((2-hydroxyethyl)amino)-2,3-dihydro-1H-inden-4-yl)-1,2,4-oxadiazol-5-yl)benzonitrile]: the pEC50 was under 8.30.

Consider `CC(C)Oc1ccc(-c2nc(-c3cccc4c3CC[C@@H]4NS(=O)(=O)CCN3CCC3)no2)cc1C#N` [Compound 169], for which the pEC50 is 8.30 to 9.30.

As for `N#Cc1cc(-c2nc(-c3cccc4c3CC[C@H]4N)no2)ccc1OCC1CC1` [Compound 100, (R)-5-(3-(1-amino-2,3-dihydro-1H-inden-4-yl)-1,2,4-oxadiazol-5-yl)-2-(cyclopropylmethoxy)benzonitrile], the pEC50 was 8.30 to 9.30. With `CC(C)Oc1ccc(-c2nc(-c3cccc4c3CC[C@@H]4NS(=O)(=O)CC(=O)O)no2)cc1C#N` [Compound 71, (S)-2-(N-(4-(5-(3-cyano-4-isopropoxyphenyl)-1,2,4-oxadiazol-3-yl)-2,3-dihydro-1H-inden-1-yl)sulfamoyl)acetic acid], the pEC50 was 9.30 to 10.30.

Take `CC(C)Oc1ccc(-c2nc(-c3cccc4c3CC[C@@H]4NCc3cncs3)no2)cc1C#N` [Compound 161]: the pEC50 is 9.30 to 10.30.

For `CC(C)Oc1ccc(-c2nc(-c3cccc4c3CC[C@@H]4NS(=O)(=O)CCN(C)C)no2)cc1C#N` [Compound 78, (S)-N-(4-(5-(3 cyano-4-isopropoxyphenyl)-1,2,4-oxadiazol-3-yl)-2,3-dihydro-1H-inden-1-yl)-2-(dimethylamino)ethanesulfonamide], the pEC50 is 8.30 to 9.30.

Regarding `CC(C)Oc1ccc(-c2nc(-c3cccc4c3CC[C@@H]4NC(=O)N3CCC(CC(=O)O)CC3)no2)cc1C#N` [Compound 229], the pEC50 was 9.30 to 10.30. Then `CC(C)Oc1ccc(-c2nc(-c3cccc4c3CC[C@H]4NCC(N)=O)no2)cc1C#N` [Compound 51], with over 10.30. As for `CC(C)Oc1ccc(-c2nc(-c3cccc4c3CC[C@@H]4NS(=O)(=O)CC(=O)N3CCC3)no2)cc1C#N` [Compound 200], the pEC50 is over 10.30. Consider `CC(C)Oc1ccc(-c2nc(-c3cccc4c3CC[C@@H]4NS(=O)(=O)CCN3CCOCC3)no2)cc1C#N` [Compound 177], for which the pEC50 is 8.30 to 9.30. In the case of `CNCCS(=O)(=O)N[C@H]1CCc2c(-c3noc(-c4ccc(OC(C)C)c(C#N)c4)n3)cccc21` [Compound 74], the pEC50 is 9.30 to 10.30.
